The values that follow come from ChEMBL document CHEMBL1142612, “A meroterpenoid NF-kappaB inhibitor and drimane sesquiterpenoids from Asafetida” (J Nat Prod, 2006).

Activity calls are given as the source filed them. The rule behind the calls is not given here.

The test system of experiment [1] is A549. Description: Inhibition of NF-kappaB in TNF-alpha-stimulated human A549 cells cotransfected with KBF-luciferase gene preincubated for 30 mins before TNFalpha challenge after 6 hrs by luciferase reporter gene assay. Format: cell-based.
Experiment [2] has as its system A549. Description: Cytotoxicity against human A549 cells using propidium iodide staining by flow cytometry. It is filed as functional, cell-based.
In another experiment the test system is HeLa. The experiment can be described thus: Cytotoxicity against human HeLa cells using propidium iodide staining by flow cytometry. It is filed as functional, cell-based.
A short description of experiment [3]: Inhibition of NF-kappaB in TNF-alpha-stimulated human cloned Jurkat 5.1 cells cotransfected with HIV1-LTR promoter preincubated for 30 mins before TNFalpha challenge after 6 hrs by luciferase reporter gene assay. Format: cell-based.
The subject of the next experiment is Jurkat. The experiment can be described thus: Cytotoxicity against human cloned Jurkat 5.1 cells using propidium iodide staining by flow cytometry. It is filed as functional, cell-based.

With `CC(=O)OC(CC=C(C)C)/C(C)=C/C(O)C/C(C)=C/COc1ccc2ccc(=O)oc2c1` (configuration not stated), the Activity result with A549 [1] was “Dose-dependent effect”. Moreover, the result in the experiment on A549 [2], with HeLa and with Jurkat was inactive. In addition, in experiment [3], 15.1 µM corresponded to half-maximal inhibition (IC50).
For the compound `CC1=CC(=O)C2=C(C)CC3OC(=O)C(C)=C3C=C12` (configuration not stated) [TARAXACIN], the IC50 in experiment [3] worked out at 57.6 µM.
In experiment [3], `CC(C)=CCC(O)/C(C)=C/C(O)C/C(C)=C/COc1ccc2ccc(=O)oc2c1` (configuration not stated) yielded a half-maximal inhibitory concentration (IC50) of 37.5 µM.
